Data published in patent US7592344B2, “NK1 and NK2-antagonists and compositions and methods of using the same” (Solvay Pharmaceuticals GmbH, priority 2005, dated 2009).

Experiments:
[1] = target: T1, human NK2 receptor (Homo sapiens, UniProt P21452); experiment: Functional cellular test, Ca2+ measurement using FLIPR, NK2 (NKA stimulated CHO cells)
T1 sequence (P21452 1-398): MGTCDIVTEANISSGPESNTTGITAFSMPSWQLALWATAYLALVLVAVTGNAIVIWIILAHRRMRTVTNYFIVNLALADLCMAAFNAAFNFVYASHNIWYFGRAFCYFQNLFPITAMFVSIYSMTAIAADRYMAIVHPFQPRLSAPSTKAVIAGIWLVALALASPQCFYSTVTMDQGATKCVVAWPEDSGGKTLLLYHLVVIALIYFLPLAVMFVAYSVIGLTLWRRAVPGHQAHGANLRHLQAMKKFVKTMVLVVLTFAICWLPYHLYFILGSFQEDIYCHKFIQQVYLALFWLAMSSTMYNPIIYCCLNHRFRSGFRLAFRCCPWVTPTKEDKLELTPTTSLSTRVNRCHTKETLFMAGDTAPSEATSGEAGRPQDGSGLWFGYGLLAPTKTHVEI
Protocol: (§4) Functional Cellular Tests of the NK1- and NK2-antagonistic Effects
(§5) Functional cellular tests of the antagonistic effect of the compounds of the present invention on the human tachykinin receptors were performed in CHO cells expressing the recombinant human NK1 or NK2 receptor. In these tests the inhibition of ligand induced increase in mobilization of intracellular calcium and the inhibition of ligand induced phosphorylation of MAPK were determined, which can be used as a measure of functional activity of tachykinin-antagonists. Additionally, the antagonistic properties of reference compounds on the different tachykinin receptors were characterized for comparison.
(§6) The effects of test compounds were assessed using Chinese hamster ovary (CHO) fibroblast cells, stably expressing cloned human NK1 or NK2 receptors. The NK receptor in coupled to Gq. The activation of the Gq protein by ligand binding to the receptor leads to a mobilization of intracellular calcium and phosphorylation of MAPK. Both systems were used to determine functional effects of the test compounds.
(§7) Ca^2+Measurements Using FLIPR for NK1 and NK2 Activity
(§8) For tests, cell were seeded 24 hours prior to the experiment into black 96-well microplates. The cell density was 2.2×10^4 cells/well. All steps were done under sterile conditions. In order to observe changes in intracellular calcium levels, cells were loaded with a calcium-sensitive dye. This dye (FLUO-4, from Molecular Probes) excites at 488 nm, and emits in the 560 nm range, only if a complex with calcium is formed. For the dye loading the growth-medium was aspirated out of the well without disturbing the confluent cell layer and 100 μl loading medium (HBSS, 4 μM FLUO-4, 0.005% (w/v) pluronic acid, 2.5 mM probenecid, 20 mM HEPES, pH 7.4) was dispensed into each well using an automatic pipettor system (Multidrop, Labsystems). Pluronic acid was added to increase dye solubility and dye uptake into the cells, whereas probenecid, an anion exchange inhibitor, was added to the loading medium to increase dye retention in the cells. The cells were incubated in a 5% CO2 incubator at 37° C. for 40 minutes. After dye loading, the cells were washed three times with wash-buffer (HBSS, 2.5 mM probenecid, 20 mM HEPES, pH 7.4) to reduce basal fluorescence. In the last washing step the buffer was aspirated and replaced with 100 μl washing buffer. […] The FLIPR setup parameters were set to 0.4 sec exposure length, filter 1, 50 μl fluid addition, pipettor height at 125 μl, dispense speed 40 μl/sec without mixing. Maximal fluorescence changes were obtained using the statistic function of the FLIPR software, and data plotted using GraphPad Prism 4. All points were expressed as a percentage inhibition of the control agonist. IC50 values were determined using sigmoidal dose-response curve fitting.

[2] = target: T1, human NK2 receptor; experiment: Binding power to NK2 receptors in vitro ([3H]-SR 48968 displacement, CHO cell membranes); design: expressed in transfected cells; host or cells: CHO cells (membrane preparation); conditions: human NK2 receptor in CHO membranes, ligand [3H]-SR 48968, 90 min incubation; for Ki: read-out: pKi (NK2) (converted)
Protocol: The affinity of the test substances to human NK2 receptors was measured in vitro. The ability of the test substances to displace the selective NK2 receptor antagonist SR 48968 (=saredutant) used as reference ligand from its corresponding bond was determined.
The receptor binding studies were carried out with radioactively marked [^3H]-SR 48968 (from Amersham) as ligand. For the binding test, different samples of a membrane preparation of CHO cells (=egg cells of the Chinese hamster, […]), which express the human NK2 receptor (for preparation, see N. P. Gerard et al., Journal of Biological Chemistry 265/33 (1990) 20455-20462), were incubated for 90 minutes (=min.) with a solution of the marked ligand, with the incubation mixtures containing no test substance or additions of different concentrations of test substance. Then in each case the membrane-bound ligands in the samples were separated from free ligands by filtration. The fraction remaining in the filter was washed several times with buffer solution, before its radioactivity was measured using a liquid scintillation counter. That concentration which effects half-maximum displacement of the bound reference ligand was determined as IC50 of the respective test substance. The inhibition constant (Ki value) of the test substance was calculated from the respective IC50 value, and was stated as the negative logarithmized value thereof (pKi).
If several measurements were performed, the average thereof was listed each time. The pKi value is a measurement of the affinity of the test substances to human NK2 receptors.

[3] = target: T2, human NK1 receptor (Homo sapiens, UniProt P25103); experiment: Binding power to NK1 receptors in vitro ([3H]-Substance P displacement, CHO cell membranes); design: expressed in transfected cells; host or cells: CHO cells (membrane preparation); conditions: human NK1 receptor in CHO membranes, ligand [3H]-Substance P; for Ki: read-out: pKi (NK1) (converted)
Protocol: 1. Determination of the Binding Power of the Test Substances to NK1 Receptors In Vitro.
Affinity of the test substances to human NK1 receptors was measured in vitro.
The receptor binding studies were performed with [^3H]-Substance P as ligand. For the binding test, different samples of a membrane preparation of CHO cells (=egg cells of the Chinese hamster, […]), which express the human NK1 receptor (“Accession Number” of the associated nucleic acid sequence=M74290; “Accession Number” of the associated protein sequence=P25103; cf. Takeda, Y.; Chou, K. B., Takeda, J.; Sachais, B. S. and Krause, J. E; Biochemical and Biophysical Research Communications, 179(3) (1991) 1232-1240), were incubated with a solution of the marked ligand, with the incubation mixtures containing no test substance or additions of different concentration of test substance. Then, separation of bound and free ligands was performed in each of the samples with the aid of glass-fiber filtration. The fraction remaining in the filter was washed several times with buffer solution and then the radioactivity of the fraction remaining in the filter was measured using a beta scintillation counter.
For the compounds of Examples 1 to 14, that concentration which effects half maximum displacement of the bound ligand was determined as IC50 of the respective test substance. From this, the corresponding inhibition constant (Ki value) of the test substance was calculated, and was stated as the negative common logarithm of the Ki value (=pKi value) The pKi value is a measurement of the affinity of the test substances to human NK1 receptors.

[4] = target: T2, human NK1 receptor; experiment: Functional cellular test, Ca2+ measurement using FLIPR, NK1 (substance P stimulated CHO cells)
Protocol: as §4, §5, §6, §7, §8

[5] = target: T3, NK1 receptors (Cavia porcellus, UniProt P30547); experiment: NK1-receptor-antagonistic effectiveness in vivo in anesthetized guinea pigs (NKA-induced early hypotension); conditions: guinea pig
T3 construct: from tissue; host or cells: whole animal: anesthetized Pirbright-White guinea pigs
Description: (§1) 6. Determination of the NK1- and NK2-receptor-antagonistic Effectiveness of the Test Substances In Vivo
(§2) The NK1- and NK2-antagonistic activities of the test substances were investigated in anesthetized guinea pigs in each case after intravenous (=i.v.) and oral (=p.o.) administration in vivo. With the present test model it is possible to detect both NK2-antagonistic effects in three different organ systems (respiratory tracts, colon and circulation) and NK1-antagonistic effects (rapid drop in blood pressure) in an animal simultaneously.
Pirbright-White guinea pigs having a body weight of 500-700 g were anesthetized with ketamine/xylazine (67/13 mg/kg subcutaneously, initial dose, further doses administered as required). […] The animals were artificially ventilated via a tracheal cannula and the respiratory pressure was recorded by a pressure transducer. […] Blood pressure, heart rate, respiratory pressure and colonic pressure were measured continuously for each animal and plotted on a recorder and by a digital data-processing system. […]
(§3) The antagonistic effects of the test substances were then determined as “area under the curve” (“AUC”) over the investigation period after administration of the test substances (1-180 min after administration) and the ED50 values after oral administration obtained therefrom were plotted in Table 7.

[6] = target: T4, NK2 receptors (Cavia porcellus, UniProt Q64077); experiment: NK2-receptor-antagonistic effectiveness in vivo in anesthetized guinea pigs (NKA-induced late hypotension, bronchoconstriction, colonic motility); conditions: guinea pig
T4 construct: from tissue; host or cells: whole animal: anesthetized Pirbright-White guinea pigs
T4 sequence (Q64077 1-402): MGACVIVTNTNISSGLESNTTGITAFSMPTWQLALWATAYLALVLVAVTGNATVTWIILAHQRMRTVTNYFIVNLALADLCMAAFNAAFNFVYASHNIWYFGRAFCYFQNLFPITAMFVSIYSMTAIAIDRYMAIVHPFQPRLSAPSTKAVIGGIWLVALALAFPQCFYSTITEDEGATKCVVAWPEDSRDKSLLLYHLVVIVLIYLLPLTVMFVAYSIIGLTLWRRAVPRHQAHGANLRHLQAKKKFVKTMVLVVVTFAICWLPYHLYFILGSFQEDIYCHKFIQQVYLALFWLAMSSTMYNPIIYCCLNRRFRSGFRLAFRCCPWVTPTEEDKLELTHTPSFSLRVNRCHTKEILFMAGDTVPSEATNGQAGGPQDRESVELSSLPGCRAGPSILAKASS
Description: as §1, §2
Pirbright-White guinea pigs having a body weight of 500-700 g were anesthetized with ketamine/xylazine (67/13 mg/kg subcutaneously, initial dose, further doses administered as required). The animals were provided with an intravenous catheter in order to administer the substance and an intra-arterial catheter to measure the blood pressure. The animals were artificially ventilated via a tracheal cannula and the respiratory pressure was recorded by a pressure transducer. A balloon was introduced into the distal colon of the animals for manometric recording of colon motility by a pressure transducer. Blood pressure, heart rate, respiratory pressure and colonic pressure were measured continuously for each animal and plotted on a recorder and by a digital data-processing system. […] The second phase of delayed hypotension (=phase of maximum hypotension after 2-5 min.) on the other hand is mediated via NK2 receptors, since they can be blocked by specific NK2 receptor antagonists.
These ED50 values obtained from cumulative dose effect curves are plotted in Table 6.
as §3

[7] = target: T3, NK1 receptors; experiment: Functional NK1 antagonism on isolated guinea pig aorta rings (inhibition of Substance P-induced relaxation); conditions: phenylephrine tone, 0.01 μmol Substance P
Protocol: 3. Determining of the Functional NK1 Antagonism of the Test Substances on Isolated Guinea Pig Tissue In Vitro
The action antagonistic to NK1 receptors of the test substances was measured in vitro on isolated ring preparations, kept in an oxygenated nutrient solution, of the aortas of Pirbright-White guinea pigs.
In order to measure the contraction of the vessel muscles, the preparations were fixed to a hook, joined by a thread to a force measuring apparatus and the contractions were recorded in each case on a plotter. The aorta preparations were tonicized with phenylephrine. […] The relaxations before and after the administration of the test substance were qualified in percent. The effective concentration of the half maximum inhibition of the relaxation of the tone (=EC50) was calculated. The negative common logarithm of the EC50 value (=pEC50) was given as characteristic variable. The pEC50 value is a measurement of the functional effectiveness of the test substances on NK1 receptors.

[8] = target: T4, NK2 receptors; experiment: Functional NK2 antagonism on isolated guinea pig gall-bladder (inhibition of NKA-induced contraction); conditions: NKA 0.1 μmol/l, two hours' incubation, IC50 in mol/l
Protocol: 4. Determination of the Functional […] of the Test Substances on Isolated Guinea Pig Tissue In Vitro.
The NK2 receptor-antagonizing action of the test substances was determined on isolated gall-bladder preparations from Pirbright-White guinea pigs, held in an oxygen-saturated nutrient solution. To this end, the preparations were fastened on one hand in the nutrient solution to organ holders and on the other hand on a force meter by a thread.
The concentration of the test substances was increased iteratively in the subsequent experiments as a function of the result in logarithmic whole or half steps, until at least one concentration above or below 50% inhibition of contraction was determined (up to at most 10^−5 mol/l). For each concentration, the average value of inhibition of contraction was calculated from 2 to 4 preparations. In each case, the concentration of half-maximum inhibition (IC50) per test substance was calculated as characteristic variable. In each case the logarithmized value of the IC50 per test substance is given as plC50 in [mol/l].

[9] = i.v., NKA stimulus 1 min after dosing

T2 sequence (P25103 whole entry): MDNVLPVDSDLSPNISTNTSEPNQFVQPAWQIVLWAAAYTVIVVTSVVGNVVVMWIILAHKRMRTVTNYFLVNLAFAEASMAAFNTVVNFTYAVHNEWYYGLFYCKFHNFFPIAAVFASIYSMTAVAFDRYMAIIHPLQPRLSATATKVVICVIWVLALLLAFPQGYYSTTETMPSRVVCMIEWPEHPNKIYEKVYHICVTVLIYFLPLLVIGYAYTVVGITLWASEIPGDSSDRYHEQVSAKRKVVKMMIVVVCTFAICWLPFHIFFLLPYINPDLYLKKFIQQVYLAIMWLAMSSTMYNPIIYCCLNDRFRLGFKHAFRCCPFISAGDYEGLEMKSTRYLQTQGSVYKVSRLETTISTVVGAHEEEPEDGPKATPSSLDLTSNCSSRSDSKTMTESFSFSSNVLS
T3 sequence (P30547 whole entry): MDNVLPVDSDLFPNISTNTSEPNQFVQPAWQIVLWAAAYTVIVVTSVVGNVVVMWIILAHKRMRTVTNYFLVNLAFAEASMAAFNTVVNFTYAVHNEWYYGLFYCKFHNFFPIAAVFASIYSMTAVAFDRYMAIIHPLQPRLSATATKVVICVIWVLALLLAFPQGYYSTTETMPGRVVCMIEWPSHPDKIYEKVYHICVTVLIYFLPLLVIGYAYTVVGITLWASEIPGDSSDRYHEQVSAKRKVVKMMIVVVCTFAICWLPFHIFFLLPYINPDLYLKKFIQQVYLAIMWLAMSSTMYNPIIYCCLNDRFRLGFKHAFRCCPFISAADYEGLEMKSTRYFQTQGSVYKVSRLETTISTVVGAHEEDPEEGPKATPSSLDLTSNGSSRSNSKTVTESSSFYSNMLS

Row | Compound | Kb [1] [nM] | Ki [2] [nM] | Ki [3] [nM] | Kb [4] [nM] | also measured
1 | COc1ccc([C@@H]([C@H](O)CO)N2CCN(CC[C@H](CN(C)C(=O)c3cc(C#N)cc4ccccc34)c3ccc(Cl)c(Cl)c3)CC2)cc1 [Compound 16, 3-cyano-N-[(2)-2-(3,4-dichlorophenyl)-4-{4-[(1S,2S)-2,3-dihydroxy-1-(4-methoxyphenyl)propyl]piperazin-1-yl}butyl]-N-methyl-1-naphthamide] | 0.794 | 794 | 1 | 0.501 | 
2 | CN(C[C@@H](CCN1CCN([C@@H](c2cccs2)[C@H](O)CO)CC1)c1ccc(Cl)c(Cl)c1)C(=O)c1cc(C#N)cc2ccccc12 [Compound 9, 3-cyano-N-[(2S)-2-(3,4-dichlorophenyl)-4-{4-[(1R,2S)-2,3-dihydroxy-1-(2-thienyl)propyl]piperazin-1-yl}butyl]-N-methyl-1-naphthamide] | 10 |  |  |  | 
3 | CN(C[C@@H](CCN1CCN([C@@H](c2ccco2)[C@H](O)CO)CC1)c1ccc(Cl)c(Cl)c1)C(=O)c1cc(C#N)cc2ccccc12 [Compound 1, 3-cyano-N-[(2S)-2-(3,4-dichlorophenyl)-4-{4-[(1R,2S)-1-(2-furyl)-2,3-dihydroxy-propyl]-piperazin-1-yl}butyl]-N-methyl-1-naphthamide] |  |  |  |  | melting point: 140 to 142 °C; oral activity as NK1 receptor antagonist (in words) ([5]; oral): active orally; oral activity as NK2 receptor antagonist (in words) ([6]; oral): active orally
4 | CN(CC(CCN1CCN(C(c2ccco2)C(O)C(O)CO)CC1)c1ccc(Cl)c(Cl)c1)C(=O)c1cc(C#N)cc2ccccc12 (centres unmarked) [Compound 7] |  |  |  |  | pA2 (NK2) ([1]; CHO cells with human NK2 receptor, FLIPR Ca2+, NKA 10^-7 M): 8.1; ED50 iv after 1 min (cumulative), NK1 (early hypotension) [5, 9]: 0.052 µmol/kg; ED50 iv after 1 min (cumulative), NK2 (bronchoconstriction) [6, 9]: 0.207 µmol/kg; ED50 iv after 1 min (cumulative), NK2 (colonic motility) [6, 9]: 0.309 µmol/kg; ED50 iv after 1 min (cumulative), NK2 (late hypotension) [6, 9]: 0.338 µmol/kg; pKi (NK2) [2]: 7.4; pKi (NK1) [3]: 8.3; pA2 (NK1) ([4]; CHO cells with human NK1 receptor, FLIPR Ca2+, substance P 10^-8 M): 8.8
5 | CN(CC(CCN1CCN(C(c2ccsc2)C(O)C(O)C(O)CO)CC1)c1ccc(Cl)c(Cl)c1)C(=O)c1cc(C#N)cc2ccccc12 (centres unmarked) [Compound 5] |  |  |  |  | pKi (NK2) [2]: 7.3; pKi (NK1) [3]: 8.9; pEC50 [7]: 10.0; pIC50 [8]: 7.5

Now from value to compound, other results behind:

Row | Kb [1] [nM] | Ki [2] [nM] | Ki [3] [nM] | Kb [4] [nM] | Compound | also measured
6 | 39.8 | 100 | 7.94 | 10 | CC(=O)OCC(O)C(Cc1ccccc1)N1CCN(CCC(CN(C)C(=O)c2cc(C#N)cc3ccccc23)c2ccc(Cl)c(Cl)c2)CC1 (centres unmarked) [Compound 26] | 
7 | 15.8 | 31.6 | 10 | 7.94 | CN(CC(CCN1CCN(C(Cc2ccccc2)C(O)CO)CC1)c1ccc(Cl)c(Cl)c1)C(=O)c1cc(C#N)cc2ccccc12 (centres unmarked) [Compound 24] | 
8 | 7.94 | 25.1 | 6.31 | 0.631 | CC(=O)OC[C@@H](OC(C)=O)[C@H](c1ccco1)N1CCN(CC[C@H](CN(C)C(=O)c2cc(C#N)cc3ccccc23)c2ccc(Cl)c(Cl)c2)CC1 [Compound 27, (2S,3R)-2-(acetyloxy)-3-{4-[(3S)-4-[3-cyano-1-naphthoyl)(methyl)amino]-3-(3,4-dichlorophenyl)butyl]piperazin-1-yl}-3-(2-furyl)propyl acetate] | 
